The NIST ThermoML archive (doi:10.1016/j.jct.2008.07.017)
Numbers after ± are expanded uncertainties.

What was measured:
[1] = Solid-liquid equilibrium temperature
[2] = Crystal 2; DTA

| SMILES | Triple point temperature [2] | Solid-liquid equilibrium temperature ([1]; 10000 kPa, Crystal 1, DTA) | Solid-liquid equilibrium temperature ([1]; 10000 kPa, Crystal 2, DTA) | Solid-liquid equilibrium temperature ([1]; 25000 kPa, Crystal 1, DTA) | Solid-liquid equilibrium temperature ([1]; 25000 kPa, Crystal 2, DTA) | Solid-liquid equilibrium temperature ([1]; 50000 kPa, Crystal 1, DTA) | Solid-liquid equilibrium temperature ([1]; 50000 kPa, Crystal 2, DTA) | Solid-liquid equilibrium temperature ([1]; 100000 kPa, Crystal 1, DTA) | Solid-liquid equilibrium temperature ([1]; 125000 kPa, Crystal 1, DTA) | Solid-liquid equilibrium temperature ([1]; 150000 kPa, Crystal 1, DTA) | further results |
| --- | --- | --- | --- | --- | --- | --- | --- | --- | --- | --- | --- |
| CCCCCCCCCCCCCCCCCCCC [eicosane] |  |  |  |  |  |  |  |  |  |  | Solid-liquid equilibrium temperature ([1]; 33520 kPa, Crystal, DTA): 318.15 ± 0.33 K; Solid-liquid equilibrium temperature ([1]; 55080 kPa, Crystal, DTA): 323.15 ± 0.35 K; Solid-liquid equilibrium temperature ([1]; 76800 kPa, Crystal, DTA): 328.15 ± 0.37 K; Solid-liquid equilibrium temperature ([1]; 99090 kPa, Crystal, DTA): 333.15 ± 0.38 K; Solid-liquid equilibrium temperature ([1]; 150000 kPa, Crystal, DTA): 344.91 ± 0.41 K |
| CCCCCCCCCCCCCCCCCCCCCCCCCCCCCCCCCCCCCCCC [tetracontane] | 376.03 ± 0.41 K |  |  |  |  |  |  |  |  |  | Solid-liquid equilibrium temperature ([1]; 10000 kPa, Crystal 1): 357.34 ± 0.55 K; Solid-liquid equilibrium temperature ([1]; 10000 kPa, Crystal 2): 351.37 ± 0.54 K; Solid-liquid equilibrium temperature ([1]; 35758 kPa, Crystal 1): 363.15 ± 0.67 K; Solid-liquid equilibrium temperature ([1]; 48436 kPa, Crystal 2): 363.15 ± 0.7 K; Solid-liquid equilibrium temperature ([1]; 50000 kPa, Crystal 1): 367.26 ± 0.71 K; Solid-liquid equilibrium temperature ([1]; 50000 kPa, Crystal 2): 364.54 ± 0.7 K; Solid-liquid equilibrium temperature ([1]; 68114 kPa, Crystal 1): 371.15 ± 0.75 K; Solid-liquid equilibrium temperature ([1]; 73917 kPa, Crystal 2): 371.15 ± 0.76 K; Solid-liquid equilibrium temperature ([1]; 90000 kPa, Crystal 1): 376.58 ± 0.8 K; Solid-liquid equilibrium temperature ([1]; 112740 kPa, Crystal 1): 381.15 ± 0.84 K; Solid-liquid equilibrium temperature ([1]; 130000 kPa, Crystal 1): 385.22 ± 0.87 K |
| CCCCCCCCCCCCCCCCCCCCCCCC [tetracosane] | 339.59 ± 0.41 K | 326.74 ± 0.31 K | 324.24 ± 0.3 K | 330.4 ± 0.33 K | 328.4 ± 0.33 K | 336.12 ± 0.36 K | 334.94 ± 0.36 K | 346.93 ± 0.4 K | 352.26 ± 0.41 K | 357.28 ± 0.42 K | Solid-liquid equilibrium temperature ([1]; 40000 kPa, Crystal 1, DTA): 333.86 ± 0.35 K; Solid-liquid equilibrium temperature ([1]; 40000 kPa, Crystal 2, DTA): 332.37 ± 0.35 K |
| CCCCCCCCCCCCCCCCCCCCCCCCCCCCCC [triacontane] | 361.27 ± 0.41 K | 341.68 ± 0.31 K | 338.9 ± 0.31 K | 345.34 ± 0.34 K | 343.03 ± 0.34 K | 351.45 ± 0.37 K | 349.8 ± 0.37 K | 362.54 ± 0.41 K | 367.76 ± 0.42 K | 372.97 ± 0.44 K | Solid-liquid equilibrium temperature ([1]; 75000 kPa, Crystal 1, DTA): 357 ± 0.39 K; Solid-liquid equilibrium temperature ([1]; 75000 kPa, Crystal 2, DTA): 356.07 ± 0.39 K |
